Measurements from patent US20110104159A1, “COMPOSITIONS AND METHODS FOR TREATING, CONTROLLING, REDUCING, AMELIORATING, OR PREVENTING ALLERGY” (priority 2006, published 2011).
Several values for one entry are separate records, joined by “and”; a condition that tells them apart may be missing. Equal entries are not always repeated. Where two headings read alike, the source gives them in different places.

Legend:
PGE2 = assay: Prostaglandin E2 (PGE2) measurement in aqueous humor; assay type: in vivo, Rabbit; conditions: for PGE2 in aqueous humor at the second paracentesis, Mean: group mean; for PGE2 in aqueous humor at the second paracentesis: individual eye sample, listed as BOL; for PGE2 in aqueous humor, statistical comparison with CTR: p<0.05
Method: (§1) Each rabbit was placed in a restraint device and tagged with the alphanumeric code. The formulations were instilled (50 μl) into the conjunctival sac of both eyes 180, 120, 90 and 30 min before the first paracentesis; then 15, 30, 90 min after the first paracentesis. To perform the first paracentesis the animals were anaesthetized by intravenous injection of 5 mg/kg Zoletil® (Virbac; 2.5 mg/kg tiletamine HCl and 2.5 mg/kg zolazepam HCl) and one drop of local anesthetic (Novesina®, Novartis) was administered to the eye. Anterior chamber paracentesis was performed with a 26 G needle attached to a tuberculin syringe; the needle was introduced into the anterior chamber through the cornea, taking care not to damage the tissues. Two hours after the first paracentesis, the animals were sacrificed with 0.4 ml Tanax® (Intervet International B.V.) and the second paracentesis was performed. About 100 μl of aqueous humor were removed at the second paracentesis. Aqueous humor was immediately split in four aliquots and stored at −80° C. until analysis. Then both eyes were enucleated and the iris-ciliary body was carefully excised, placed in polypropylene tubes, and stored at −80° C. until analysis.
For the quantitative determination of PGE2 in the aqueous humor we used the PGE2 Immunoassay kit (R&D Systems; Cat. No. KGE004; Lot. No. 240010). Eleven microliters or 16 μl of aqueous humor were diluted to 110 μl or 160 μl with the calibrator diluent solution provided with the kit. One hundred microliters of samples and of standards were load into a 96-well plate and recorded in a plate layout. Samples were treated following the assay procedure described in the kit. A microplate reader (GDV, Italy; model DV 990 B/V6) set at 450 nm (wavelength correction at 540 nm) was used for making the calibration and analyzing the samples.

leukocytes (PMN) = assay: Leukocytes (PMN) measurement in aqueous humor; assay type: in vivo, Rabbit; conditions: for PMN in aqueous humor at the second paracentesis, Mean: group mean; for PMN in aqueous humor at the second paracentesis: individual eye sample, listed as BOL
Method: as §1
For the determination of the number of leukocytes we used a haemocytometer (Improved Neubauer Chamber; Brigth-line, Hausser Scientific) and a Polyvar 2 microscope (Reichert-Jung).

MPO = assay: Myeloperoxidase (MPO) activity in iris-ciliary body; assay type: in vivo, Rabbit; conditions: for MPO activity in iris-ciliary body, statistical comparison with CTR: p<0.001; for Mean MPO Unit/g (MPO activity in iris-ciliary body samples): group mean, after the second paracentesis; for MPO Unit/g (raw data of MPO activity in iris-ciliary body samples): individual eyes (DX/SX) of rabbits, samples collected after the second paracentesis, listed as BOL
Method: 2.3.2.1 Phosphate Buffer (50 mM; pH=6)
3.9 g of NaH2PO4 2H2O were dissolved in a volumetric flask to 500 ml with water. The pH was adjusted to pH=6 with 3N NaOH.
0.5 g of hexa-decyl-trimethyl-ammonium bromide was dissolved in 100 ml phosphate buffer.
The solution was prepared freshly. Ten microliters of H2O2 (30 wt. %) were diluted to 1 ml with water (solution A). 7.5 mg o-dianisidine 2HCl were dissolved in 45 ml of phosphate buffer and 75 μl of solution A were added.
as §1
The activity of MPO was measured as previously described by Williams et al. The iris-ciliary bodies were carefully dried, weighed and immersed in 1 ml of hexa-decyl-trimethyl-ammonium bromide solution. Then, the samples were sonicated for 10 sec on ice by a ultrasound homogenizer (HD 2070, Bandelin electronic), freeze-thawed three times, sonicated for 10 sec and centrifuged at 14,000 g for 10 min to remove cellular debris. An aliquot of the supernatant (40-200 μl) was diluted to 3 ml with the o-dianisidine 2HCl/H2O2 solution. The change in absorbance at 460 nm was continuously monitored for 5 min by a spectrophotometer (UV/Vis Spectrometer Lambda EZ 201; Perkin Elmer). The slope of the line (Δ/min) was determined for each sample and used to calculate the number of units of MPO in the tissue as follows:
where ε=11.3 mM^−1. Values were expressed as units of MPO/g of tissue.

human eosinophils = assay: Cytokine-sustained (GM-CSF or IL-5) eosinophil survival; assay type: cell-based; conditions: for IC50: Homo sapiens, Eosinophil, 48 h, 0.1% FBS
annexin I = assay: Annexin I surface expression in human eosinophils (FACS), transactivation marker; assay type: cell-based; conditions: 10 000 nM
Method: FACS was performed to measure cell surface expression of annexin I and CXCR4 as indicators of glucocorticoid-mediated transactivation. Human eosinophils were double-stained with a red dye-conjugated secondary antibody to trace changes in the expression of CXCR4 or I, and a green dye-conjugated annexin V to exclude apoptotic cells from the analysis. The cells were counted and transferred to a 24-well plate (10^6 cells/well) and serum-starved (0.1% FBS) for 24 h.
At the end of the incubation, the cells were harvested and each sample was divided into two tubes to run parallel tests for annexin I and CXCR4 surface expression. After rinsing all samples with a HBSS solution containing 1% BSA, the cells were incubated for 45 min on a shaker with anti-annexin I or anti-CXCR4 antibodies (1:200) on ice; the negative control was incubated with an isotype-specific control antibody.
The cells were then washed twice with HBSS/BSA buffer before exposure to the Alexa Fluor® 568-conjugated secondary antibody. The excess of unbound antibody was washed away, and all samples were incubated for 15 min in the presence of annexin V-Fluos. […] Electronic gates were set on annexin V-negative cells and CXCR4 or annexin I-positive cells. Data from 10,000 cells/sample were analyzed using dedicated software (Becton, Dickinson and Company). The % of CXCR4 or annexin I positive cells was calculated.

Cc1ccc2c(NC[C@](O)(CC(C)(C)c3cc(F)cc4c3OCC4)C(F)(F)F)cccc2n1 [BOL-303242-X, (R)-1,1,1-Trifluoro-4-(5-fluoro-2,3-dihydrobenzofuran-7-yl)-4-methyl-2-{[(2-methyl-5-quinolyl)amino]methyl}pentan-2-ol]
PGE2 in aqueous humor at the second paracentesis, Mean (PGE2; 0.1% topical): 1.452 ng/mL
PGE2 in aqueous humor at the second paracentesis (PGE2; 0.1% topical): 1.62 ng/mL and 1.88 ng/mL and 2.15 ng/mL and 0.70 ng/mL and 1.34 ng/mL and 1.03 ng/mL
PGE2 in aqueous humor, statistical comparison with CTR (PGE2; 0.1% topical): statistically significant versus CTR
PGE2 in aqueous humor at the second paracentesis, Mean (PGE2; 0.5% topical): 1.384 ng/mL
PGE2 in aqueous humor at the second paracentesis (PGE2; 0.5% topical): 2.31 ng/mL and 2.59 ng/mL and 0.53 ng/mL and 0.75 ng/mL and 0.80 ng/mL and 1.62 ng/mL and 1.09 ng/mL
PGE2 in aqueous humor, statistical comparison with CTR (PGE2; 0.5% topical): statistically significant versus CTR
PGE2 in aqueous humor at the second paracentesis, Mean (PGE2; 1% topical): 2.168 ng/mL
PGE2 in aqueous humor at the second paracentesis (PGE2; 1% topical): 0.50 ng/mL and 1.87 ng/mL and 1.71 ng/mL and 4.04 ng/mL and 1.11 ng/mL and 3.78 ng/mL
PMN in aqueous humor at the second paracentesis, Mean (leukocytes (PMN); 0.1% topical): 28.333 number/μl
PMN in aqueous humor at the second paracentesis (leukocytes (PMN); 0.1% topical): 20 number/μl (4×) and 40 number/μl and 50 number/μl
PMN in aqueous humor at the second paracentesis, Mean (leukocytes (PMN); 0.5% topical): 21.250 number/μl
PMN in aqueous humor at the second paracentesis (leukocytes (PMN); 0.5% topical): 40 number/μl (2×) and 20 number/μl (3×) and 10 number/μl (3×)
PMN in aqueous humor at the second paracentesis, Mean (leukocytes (PMN); 1% topical): 28.750 number/μl
PMN in aqueous humor at the second paracentesis (leukocytes (PMN); 1% topical): 30 number/μl (3×) and 20 number/μl (3×) and 40 number/μl (2×)
MPO activity in iris-ciliary body, statistical comparison with CTR (MPO; 0.1% topical): statistical significance
Mean MPO Unit/g (MPO activity in iris-ciliary body samples) (MPO; 0.1% treatment): 0.971 Unit/g
MPO Unit/g (raw data of MPO activity in iris-ciliary body samples) (MPO; 0.1% treatment): 1.04 Unit/g and 1.00 Unit/g and 1.14 Unit/g and 1.06 Unit/g and 1.22 Unit/g and 0.61 Unit/g and 1.05 Unit/g and 0.65 Unit/g
MPO activity in iris-ciliary body, statistical comparison with CTR (MPO; 0.5% topical): statistical significance
Mean MPO Unit/g (MPO activity in iris-ciliary body samples) (MPO; 0.5% treatment): 0.775 Unit/g
MPO Unit/g (raw data of MPO activity in iris-ciliary body samples) (MPO; 0.5% treatment): 0.85 Unit/g and 0.93 Unit/g and 0.79 Unit/g and 1.03 Unit/g and 0.75 Unit/g and 0.74 Unit/g and 0.54 Unit/g and 0.58 Unit/g
MPO activity in iris-ciliary body, statistical comparison with CTR (MPO; 1% topical): statistical significance
Mean MPO Unit/g (MPO activity in iris-ciliary body samples) (MPO; 1% treatment): 0.542 Unit/g
MPO Unit/g (raw data of MPO activity in iris-ciliary body samples) (MPO; 1% treatment): 0.66 Unit/g and 0.68 Unit/g and 0.49 Unit/g and 0.40 Unit/g and 0.34 Unit/g and 1.02 Unit/g and 0.31 Unit/g and 0.43 Unit/g
Reversal of cytokine-sustained survival at higher cytokine concentrations (human eosinophils; GM-CSF 200 pM or IL-5 100 pM, data not shown): not, in fact, able to reverse cytokine-sustained survival
IC50 (human eosinophils; GM-CSF 70 pM, read-out: IC50, inhibition of GM-CSF-induced eosinophil survival): 158 nM
IC50 (human eosinophils; IL-5 30 pM, read-out: IC50, inhibition of interleukin-5-induced eosinophil survival): 399 nM
Induction of annexin I expression on the eosinophil cell surface (annexin I): partially effective only at the highest concentration
